From paper PMC5583658, “6,7-dimethoxy-1,2,3,4-tetrahydro-isoquinoline-3-carboxylic acid attenuates heptatocellular carcinoma in rats with NMR-based metabolic perturbations” (Future Science OA, 2017)

What was measured:
Assay type in all cases: in vivo, albino Wistar rats
[1] = tested on: diethylnitrosamine-induced hepatocarcinogenic rats; experiment: Bilirubin and biliverdin in liver of DEN-induced HCC rats
Method: (§1) All animals were randomly divided into five groups of six animals each. Drugs were suspended in 0.25% CMC, subjected to 28 days’ treatment orally and divided as follows: Group I: 0.25% CMC (2 ml/kg), Group II: DEN (8 mg/kg, intraperitoneally), Group III: DEN+5-fluorouracil (5-FU, 10 mg/kg, intraperitoneally), Group IV: DEN+M1 (50 mg/kg, orally) and Group V: DEN+M1 (100 mg/kg, orally). The procedure to induce HCC was adopted from a paper by Song et al. where it is shown that DEN produces HCC at 8 mg/kg intraperitoneal injection for 28 days to albino Wistar rats. After initial 1 week of adaptive inhabitation, all rats of group II–V were administered with DEN (8 mg/kg, intraperitoneally) for 28 days. After 28 days, 5-FU and M1 were given for 15 days as mentioned above for group III–V. At the end of the experimental period, animals were sacrificed by cervical decapitation and livers were dissected out immediately, rinsed in ice cold saline and stored at -20°C for further studies. The serum was collected, processed and stored for further analysis.
(§2) Liver function biomarkers like aspartate aminotransferase (AST), alanine aminotransferase (ALT) were also measured in serum using commercially available kit from Ebra Diagonesis Pvt Ltd, Germany. The oxidative parameters like superoxide dismutase (SOD), thiobarbituric acid reactive substances (TBARS), protein carbonyl (PC), SOD [14], tissue catalase (CAT) and glutathione (GSH) levels were estimated in liver tissue in the similar experiment. The total protein content of each sample was measured using the Bradford reagent and bovine serum albumin was used as a standard. Conjugated bilirubin and biliverdin in liver were measured as per the following procedure stated earlier in the literature with slight modifications.

[2] = tested on: diethylnitrosamine-induced hepatocarcinogenic rats; experiment: Histopathological studies of liver (hematoxylin and eosin); conditions: DEN+5-FU 10 mg/kg intraperitoneally; 40X
Method: as §1
Histopathological studies were also performed to find out the morphological changes of liver cells after M1 administration. Liver tissues from each group were assessed for their morphological changes using hematoxylin and eosin staining. The tissues were preserved in 10% formalin overnight. […]

[3] = tested on: diethylnitrosamine-induced hepatocarcinogenic rats; experiment: 1H-NMR-based serum metabolic profiling; conditions: rat serum; DEN+5-FU 10 mg/kg intraperitoneally
Method: as §1
All serum samples were thawed at room temperature, 250 μl of serum was taken and mixed with 250 μl of 0.9% saline sodium-phosphate buffer of strength 50 mM, pH 7.4 prepared in D2O. Then, the samples were centrifuged at 10,000 rpm for 5 min to remove any precipitates before acquiring the NMR data. A total 400 μl of the supernatant sample was used in 5 mm NMR tubes (Wilmad Glass, USA) for data acquisition with a co-axial insert containing the known concentration of TSP (sodium salt of 3-trimethylsilyl-(2,2,3,3-d4)-propionic acid) i.e. 0.1% was used as external standard reference to aid metabolite quantification for NMR experiment. Deuterium oxide (D2O; as a co-solvent and to provide a deuterium field/frequency lock) and sodium salt of trimethylsilylpropionic acid-d4 (TSP) used for NMR experiments, were purchased from Sigma-Aldrich (RI, USA).
All NMR spectra were recorded at 298 K on Bruker Biospin Avance-III 800 MHz NMR spectrometer operating at proton frequency of 800.21 MHz, equipped with CryoProbe and an actively shielded gradient unit with a maximum gradient-strength output of […]. The raw NMR data were processed in Topspin-2.1 (Bruker NMR data Processing Software). For each serum sample, one-dimensional ^1H-NMR and diffusion edited ^1H NMR spectra were recorded using the Carr–Purcell–Meiboom–Gill (CPMG) pulse sequence (cpmgpr1d, standard Bruker pulse program) with pre-saturation of the water peak through irradiating it continuously during the recycle delay (RD) of 5 sec, and the bipolar pulse pair longitudinal eddy current delay (BPP-LED) sequence, respectively. Each CPMG spectrum consisted of the accumulation of 128 scans and lasted for approximately 15 minutes. To remove broad signals from triglycerides, proteins, cholesterols and phospholipids, a total spin–spin relaxation time of 60 ms (n = 300 and 2τ=[…]) with a line broadening factor of 0.3 Hz was applied. For diffusion edited (DE)^1H NMR pulse sequence, the square gradients of 70% of the maximum gradient strength (56 G/cm) and 2 ms duration (followed by a delay of 200 μs to allow for the decay of eddy currents) were used. Diffusion time of 120 ms was used to attenuate the signals from low molecular weight compounds without affecting the lipid signals. All the spectra were processed using Topspin-2.1 (Bruker NMR data Processing Software) using standard Fourier Transformation (FT) procedure following manual phase and baseline-correction. Prior to FT, each FID was zero-filled to 4096 data points and a sine-bell apodisation function was applied. After FT, the chemical shifts were referenced internally to methyl peak of L-lactate (at δ=1.33 ppm). All recorded spectra were visually inspected for acceptability and subjected to multivariate statistical analysis to identify the altered metabolic pattern. […]

[4] = tested on: diethylnitrosamine-induced hepatocarcinogenic rats; experiment: ALT and AST in plasma of DEN-induced HCC rats; conditions: DEN+5-FU 10 mg/kg intraperitoneally, 15 days, mean ± SD, n = 6
Method: as §1, §2

[5] = tested on: diethylnitrosamine-induced hepatocarcinogenic rats; experiment: Oxidative stress parameters (SOD, CAT, GSH, PC, MDA) in liver of DEN-induced HCC rats; conditions: DEN+5-FU 10 mg/kg intraperitoneally, 15 days, mean ± SD, n = 6
Method: as §1, §2

[6] = DEN+5-FU 10 mg/kg intraperitoneally, 15 days, mean ± SD, n = 6

O=c1[nH]cc(F)c(=O)[nH]1 [5-FU, 5-fluorouracil, reference compound]
bilirubin level ([1]; 5-FU-treated rats, text value (toxic ∼60 ng)): ~35 ng | Bilirubin [1, 6]: 34.70 ± 2.12 ng/μg of protein | Biliverdin [1, 6]: 18.39 ± 3.11 ng/μg of protein | liver histopathology [2]: less ruptured and denatured cells (RC and DC) than toxic control | Variation with respect to DEN: Acac (chemical shift 2.28) [3]: ↑ | Variation with respect to DEN: Ace (chemical shift 1.92) [3]: ↓ | Variation with respect to DEN: Acet (chemical shift 2.23) [3]: ↑ | Variation with respect to DEN: Ala (chemical shift 1.48) [3]: ↓ | Variation with respect to DEN: Betaine (chemical shift 3.265) [3]: ↓ | Variation with respect to DEN: Chol (chemical shift 3.22) [3]: ↓ | Variation with respect to DEN: Cr (chemical shift 3.03) [3]: ↑ | Variation with respect to DEN: Glucose (chemical shift 3.23–3.92, 4.63, 5.21) [3]: ↓ | Variation with respect to DEN: L1 (LDL) (chemical shift 0.83–0.87) [3]: ↓ | Variation with respect to DEN: L2 (VLDL) (chemical shift 0.87–0.90) [3]: ↑ | Variation with respect to DEN: L3 (LDL) (chemical shift 1.23–1.27) [3]: ↓ | Variation with respect to DEN: L4 (VLDL) (chemical shift 1.27–1.30) [3]: ↑ | Variation with respect to DEN: L6 (chemical shift 2.00) [3]: ↓ | Variation with respect to DEN: L8 (chemical shift 2.74) [3]: ↓ | Variation with respect to DEN: L9 (chemical shift 5.28) [3]: ↓ | Variation with respect to DEN: Lys (chemical shift 1.89) [3]: ↓ | Variation with respect to DEN: NAG (chemical shift 2.02) [3]: ↑ | Variation with respect to DEN: OAG (chemical shift 2.13) [3]: ↑ | Variation with respect to DEN: Pyr (chemical shift 2.37) [3]: ↓ | Variation with respect to DEN: Tyr (chemical shift 6.89) [3]: ↓ | ALT [4]: 68.36 ± 5.32 U/L | AST [4]: 61.58 ± 4.17 U/L | CAT [5]: 9.30 ± 0.35 nM of H2O2/min/μg of protein | MDA [5]: 46.24 ± 0.26 nM/μg of protein | PC [5]: 0.35 ± 0.07 μM/μg of protein | Reduced GSH [5]: 7.30 ± 0.39 μM/μg of protein | SOD [5]: 6.99 ± 0.43 U/μg of protein
